Experimental data as given in patent publication US20160038498A1, “METHODS FOR THE TREATMENT OF CANCER” (The Translational Genomics Research Institute, priority 2013, published 2016).
One block for each compound: values may come before it.

Legend:
[1] = test system: SW-13 cells; test: Caspase 3/7 Glo assay for apoptosis; type: cell-based; details: for induction of apoptosis (caspase 3/7 activity), single compound: SW-13 (mutant p53), 8, 16, 24 and 48 hours
Protocol: (§1) ACC cell lines were plated and 24 hours later, 0.5 μM, 1 μM, 2.5 μM, and 5 μM of doxorubicin was added to the cultures. […] Data was normalized to cells alone, then to vehicle alone and expressed as a percentage of vehicle alone. […] H295R cells were plated at a density of 1750 cells/well in 40 μl of medium and SW-13 was plated at 1250 cells/wells in 40 μl DMEM with 2% FBS. […] Percent caspase 3/7 activity was normalized to cells and to DMSO control. […] […] Doxorubicin (Tocris, Minneapolis, Minn.) was used as a positive control for induction of apoptosis.

[2] = test system: H295R cells; test: Caspase 3/7 Glo assay for apoptosis; type: cell-based; details: for induction of apoptosis (caspase 3/7 activity), single compound: H295R (wild type p53), 8, 16, 24 and 48 hours
Protocol: as §1

[3] = test system: CDKN1A (p21) transcript; test: RT-qPCR of p21 mRNA levels; type: cell-based
Protocol: (§2) 6×10^5 SW-13 and 7.5×10^5 H295R cells were plated in 10 cm^2 dishes in 10 ml of media. […] Total RNA was extracted 24 hours later using the mirVana miRNA Isolation Kit (Ambion, Inc, Grand Island, N.Y.) as per the manufacturer's protocol.
(§3) Total RNA was reverse transcribed utilizing both random hexamer and oligo-dT primers and the RT^2 First Strand cDNA Synthesis Kit (SABiosciences, Valencia, Calif.). The resulting cDNA was amplified on the iQ5 Real-Time PCR Detection System (Bio-Rad Laboratories, Inc, Hercules, Calif.) using primer sets for TP53 (p53), CDKN1A (p21) and ACTB (β-actin) and RT^2 SYBR Green Master Mix (all from SABiosciences, Valencia, Calif.) and run according to manufacturer's instructions. Melting curve analysis was performed to evaluate primer set specificity. Fold difference relative to […], which was used as the reference gene, was calculated using the Pfaffl method taking into account reaction efficiencies.

[4] = test system: MDM2 protein; test: Western blot of MDM2 protein after BI-2536; type: cell-based; details: H295R and SW-13; BI-2536 24 hours
Protocol: 6×10^5 SW-13 and 7.5×10^5 H295R cells were plated in 10 cm^2 dishes in 10 ml of media. […] Cells were lysed with RIPA buffer with protease and phosphatase inhibitors, and the resulting protein lysate quantitated by BCA (Pierce, Thermo Scientific, Pittsburgh, Pa.). Thirty micrograms of protein were loaded onto 4-12% Bis-Tris pre-cast gels (Invitrogen, Carlsbad, Calif.) and allowed to separate at 150V for 1 hour. The gels were then transferred onto PVDF membranes for 7 minutes using the iBLOT western transfer system (Invitrogen, Carlsbad, Calif.) at room temperature. […] The membranes were developed using the SuperSignal West Femto Chemiluminescent Substrate (Pierce, Thermo Scientific, Pittsburgh, Pa.) and were visualized and quantitated with the Bio Spectrum 500 Imaging System (UVP, Cambridge, UK).
The blots were processed as described above for the detection of β-Actin (AbCam, Cambridge, Mass.) in 5% blocking solution which was used as an internal loading control. […] The actin membranes were also detected using the SuperSignal West Femto Chemiluminescent Substrate (Pierce, Thermo Scientific, Pittsburgh, Pa.) and were visualized and quantitated with the Bio Spectrum 500 Imaging System (UVP, Cambridge, UK) and relative amounts of PLK-1, MDM2 and p53 protein are reported relative to β-Actin. […]

[5] = test system: SW-13 cells; test: In vitro drug dose-response, cell viability by CellTiter Glo; type: cell-based
Protocol: (§4) H295R cells were plated at a density of 1750 cells/well in 40 μl of medium and SW-13 cells were plated at 1250 cells/wells in 40 μl DMEM with 2% FBS in white 384-well plates and allowed to attach for 24 hours. […] Cell viability was normalized to cells alone and DMSO controls. […].
(§5) Dose response curves and IC50 values for cell survival in the presence of the drugs were calculated using Prism software (GraphPad) using the log(inhibitor) vs. response—4 parameter function which fits the following equation: Y=Bottom+(Top-Bottom)/[1+10̂(X−Log IC50)] where X is the logarithm of concentration and Y is the percent cell survival. Y starts at the top and goes to bottom with a sigmoid shape as X increases. All experiments were done at least three technical replicates and values are represented as averages with standard error.

[6] = test system: H295R cells; test: as above; type: cell-based
Protocol: as §4, §5

[7] = test system: TP53 (p53) transcript; test: RT-qPCR of p53 mRNA levels; type: cell-based; details: either of the two cell lines (H295R, SW-13)
Protocol: as §2, §3

[8] = test system: adrenocortical carcinoma; details: cited from earlier work
[9] = test system: BD140 lines; test: Caspase 3/7 Glo assay for apoptosis; type: cell-based
Protocol: ACC cell lines SW-13 and H295R were obtained from ATCC and authenticated by STR analysis on Aug. 24, 2012. BD140 lines (A-C) represent distinct subclones established from the tumor of ACC140. BD167 was also established. They are positive for DHEAS expression, confirming adrenocortical origin. SW-13 and the […] were grown in DMEM supplemented with 10% FBS, 1% L-glutamine, 1% […] (ITS), and penicillin-streptomycin. BD140-A, BD140-B and BD167 were grown in RPMI supplemented with 10% FBS, 1% L-glutamine, 1% ITS, and penicillin-streptomycin. H295R was grown in DMEM:F12 supplemented with 2.5% NuSerum, 1% L-glutamine, 1% ITS, and penicillin-streptomycin. All cells lines were grown at 37° C. in a 5% CO2 atmosphere.
ACC cell lines were plated and 24 hours later, 0.5 μM, 1 μM, 2.5 μM, and 5 μM of doxorubicin was added to the cultures. The activity of caspases 3 and 7 was assessed using Caspase 3/7 Glo (Promega, Madison, Wis.) at 8, 24, and 48 hours after drug addition according to manufacturer's instructions. Data was normalized to cells alone, then to vehicle alone and expressed as a percentage of vehicle alone.

SMILES: CC[C@@H]1C(=O)N(C)c2cnc(Nc3ccc(C(=O)NC4CCN(C)CC4)cc3OC)nc2N1C1CCCC1 [BI-2536]
- time of maximum induction of apoptosis ([1]; SW-13): 48 h
- induction of apoptosis (caspase 3/7 activity), single compound [1]: robust induction of apoptosis
- induction of apoptosis (caspase 3/7 activity), single compound [2]: robust induction of apoptosis
- transcription of CDKN1A (p21) ([3]; H295R, wild type p53): general trend of increased transcription
- amount of CDKN1A message ([3]; SW-13, mutant p53): reduced
- levels of the MDM2 protein [4]: does not affect
- IC10 (cell viability) [5]: 0.0222 µM
- IC10 (cell viability) [6]: 0.00565 µM
- levels of p53 transcript [7]: did not significantly affect

SMILES: Clc1ccc(C(c2ccccc2Cl)C(Cl)Cl)cc1 (stereo not shown) [mitotane]
- survival of patients whose tumors respond ([8]; improved from 14 months): 50 months
- response rate ([8]; mitotane as a single agent): 23%
- tolerability ([8]; most patients, severe toxic side effects): poorly tolerated

- IC50 ([5]; CellTiter Glo, 96 hours, combination: BI-2536 kept constant at IC25, nutlin-3 serially diluted): 19.8 µM
- IC50 ([6]; CellTiter Glo, combination: BI-2536 kept constant at IC25, nutlin-3 serially diluted): 12.8 µM
SMILES: COc1ccc(C2=N[C@@H](c3ccc(Cl)cc3)[C@@H](c3ccc(Cl)cc3)N2C(=O)N2CCNC(=O)C2)c(OC(C)C)c1 [nutlin-3]
- induction of apoptosis (caspase 3/7 activity), single compound [1]: small increase in apoptosis
- induction of apoptosis (caspase 3/7 activity), single compound [2]: restored the apoptotic response
- cell viability (in words) [5]: decreased
- cell viability (in words) [6]: decreased

SMILES: COc1cccc2c1C(=O)c1c(O)c3c(c(O)c1C2=O)C[C@@](O)(C(=O)CO)C[C@@H]3O[C@H]1C[C@H](N)[C@H](O)[C@H](C)O1 [doxorubicin]
- time to significant induction of caspase 3/7 activation following doxorubicin exposure ([1]; SW-13, 0.5-5 μM): ≤ 8 h
- caspase 3/7 activation (apoptosis) following doxorubicin exposure ([2]; H295R, 0.5-5 μM, 8, 24, 48 hours): delayed
- induction of caspase 3/7 activity ([9]; 0.5 μM and 1 μM): not seen until 48 hours
- induction of caspase 3/7 activity ([9]; 2.5 μM and 5 μM, by 24 hours): moderate induction
